Assay results as given in ChEMBL document CHEMBL5518207, “Structure Guided Discovery of Novel Pan Metallo-β-Lactamase Inhibitors with Improved Gram-Negative Bacterial Cell Penetration” (J Med Chem, 2024).

Key:
[1] = Inhibition of GST tagged NDM-1 (unknown origin) expressed in Escherichia coli BL21 Star (DE3) competent cells using CCF2-FA as substrate incubated for 2 hrs by fluorescence based analysis
[2] = Inhibition of GST tagged IMP-1 (unknown origin) expressed in Escherichia coli BL21 Star (DE3) competent cells using CCF2-FA as substrate incubated for 2 hrs by fluorescence based analysis
[3] = Inhibition of GST tagged VIM-1 (unknown origin) expressed in Escherichia coli BL21 Star (DE3) competent cells using CCF2-FA as substrate incubated for 2 hrs by fluorescence based analysis
Escherichia coli = experiment: Potentiation of imipenem induced antibacterial activity against Escherichia coli CLB30005 harbouring NDM-1 incubated for 18 to 22 hrs in presence of imipenem by spectrophotometer based analysis; type: functional; settings: time 18-22 hrs
Serratia marcescens = experiment: Potentiation of imipenem induced antibacterial activity against Serratia marcescens CL5741 harbouring IMP-1 incubated for 18 to 22 hrs imipenem by spectrophotometer based analysis; type: functional; settings: time 18-22 hrs
Klebsiella pneumoniae = experiment: Potentiation of imipenem induced antibacterial activity against Klebsiella pneumoniae IHMA599644 harbouring VIM-1 incubated for 18 to 22 hrs imipenem by spectrophotometer based analysis; type: functional; settings: time 18-22 hrs
Pseudomonas aeruginosa [4] = experiment: Potentiation of imipenem induced antibacterial activity against isogenic efflux wild type Pseudomonas aeruginosa MB9798 harbouring IMP incubated for 18 to 22 hrs imipenem and beta lactamase inhibitor by spectrophotometer based analysis; type: functional; settings: time 18-22 hrs
Pseudomonas aeruginosa [5] = experiment: Potentiation of imipenem induced antibacterial activity against isogenic efflux deleted mutant Pseudomonas aeruginosa MB9799 harbouring IMP incubated for 18 to 22 hrs imipenem and beta lactamase inhibitor by spectrophotometer based analysis; type: functional; settings: time 18-22 hrs
Pseudomonas aeruginosa [6] = experiment: Efflux ratio of MITC95 for potentiation of imipenem induced antibacterial activity against isogenic efflux wild type Pseudomonas aeruginosa MB9798 harbouring IMP to MITC95 for potentiation of imipenem induced antibacterial activity against isogenic efflux deleted mutant Pseudomonas aeruginosa MB9799 harbouring IMP; type: functional

SMILES	IC50 [1]	IC50 [2]	IC50 [3]	MITC95 (Escherichia coli)	MITC95 (Serratia marcescens)	MITC95 (Klebsiella pneumoniae)	MITC95 (Pseudomonas aeruginosa [4])	MITC95 (Pseudomonas aeruginosa [5])	Ratio (Pseudomonas aeruginosa [6])
Cc1ccc(-c2cccc(S(N)(=O)=O)c2-c2nnn[nH]2)cc1	3.7 nM	64 nM	57 nM	1.5 µM	14 µM	127 µM			
N=C(N)NCc1ccc(-c2ccc(C(F)(F)F)c(S(N)(=O)=O)c2-c2nn[nH]n2)cc1	3.9 nM	3.4 nM	0.4 nM	0.3 µM	0.06 µM	0.8 µM	35.4 µM	0.39 µM	90
NS(=O)(=O)c1c(Br)ccc(-c2ccc(C3CCNCC3)cc2)c1-c1nn[nH]n1	11 nM	10 nM	3 nM	0.4 µM	0.2 µM	1.6 µM			
Cc1ccc(-c2ccc(C3CCNCC3)cc2)c(-c2nn[nH]n2)c1S(N)(=O)=O	31 nM	72 nM	28 nM	3 µM	6 µM	25 µM			
NC1CCC(N2CCC(c3ccc(-c4ccc(C(F)(F)F)c(S(N)(=O)=O)c4-c4nn[nH]n4)cc3)CC2)CC1 (centres undefined)	6.4 nM	1.8 nM	11 nM	1.6 µM	3.1 µM	50 µM	3.1 µM	0.78 µM	4
NC1(c2ccc(-c3ccc(C(F)(F)F)c(S(N)(=O)=O)c3-c3nn[nH]n3)cc2)CCNCC1	9.3 nM	12.8 nM	3 nM	0.4 µM	0.3 µM	0.9 µM	25 µM	0.39 µM	64
N=C(N)N[C@H]1CC[C@H](c2ccc(C(F)(F)F)c(S(N)(=O)=O)c2-c2nn[nH]n2)CC1	17.5 nM	25.5 nM	0.7 nM	1.2 µM	0.4 µM	1.2 µM	200 µM	0.78 µM	256
Nc1nc2cccc(-c3ccc(C(F)(F)F)c(S(N)(=O)=O)c3-c3nn[nH]n3)c2s1	0.04 nM	0.8 nM	0.1 nM	1.6 µM	6.3 µM	6.3 µM	50 µM	1.56 µM	32
NS(=O)(=O)c1cccc(-c2ccc(C3CCNCC3)cc2)c1-c1nn[nH]n1	5 nM	34 nM	19 nM	3 µM	9 µM	38 µM	200 µM	1.56 µM	128
NS(=O)(=O)c1c(C(F)(F)F)ccc(-c2ccc(NS(=O)(=O)C3CC3)cc2)c1-c1nn[nH]n1	0.3 nM	0.2 nM	0.08 nM	6.3 µM	3.1 µM	12.5 µM	50 µM	0.78 µM	64
NS(=O)(=O)c1c(Cl)ccc(-c2ccc(C3CCNCC3)cc2)c1-c1nn[nH]n1	6 nM	9 nM	3 nM	0.8 µM	0.4 µM	1.6 µM	50 µM	0.39 µM	128
NS(=O)(=O)c1c(C(F)(F)F)ccc(-c2ccc(C3CCNCC3)cc2)c1-c1nn[nH]n1	0.9 nM	1.2 nM	0.3 nM	0.7 µM	0.2 µM	1.9 µM	50 µM	0.78 µM	64
